{"source": "paper PMC6347699", "about": "(Proceedings of the National Academy of Sciences of the …, 2019)", "origin": "cited, not measured here", "key": {"[1]": {"system": "Eco RNAP"}, "[2]": {"details": "harsh denaturing conditions"}, "[3]": {"system": "Gram-negative enterobacteria", "details": "range of Gram-negative enterobacteria"}, "[4]": {"system": "RNAP backtracking"}}, "note": "Entries after “also recorded” stand apart in the source; their conditions may differ. Ends that are not written are not given here."}
{"substance": "acinetodin [reference compound]", "values": [{"measurement": "inhibition of Eco RNAP", "setting": "[1]", "result": "inhibit Eco RNAP"}]}
{"substance": "klebsidin [reference compound]", "values": [{"measurement": "inhibition of Eco RNAP", "setting": "[1]", "result": "inhibit Eco RNAP"}]}
{"substance": "microcin J25 (GGAGHVPEYFVGIGTPISFYG; ends and bridges not checked; UniProt Q9X2V7 38-58, looked up) [MccJ25]", "values": [{"measurement": "stability of structure and activity", "setting": "[2]", "result": "stable to harsh denaturing conditions"}, {"measurement": "antimicrobial properties", "setting": "[3]", "result": "antimicrobial properties against a range of Gram-negative enterobacteria"}, {"measurement": "mode of inhibition with respect to NTPs", "setting": "[1]", "result": "partially competitive; also recorded: partial competitive"}, {"measurement": "Ki", "setting": "[1]; read-out: Ki, inhibition of Eco RNAP in in vitro transcription reactions", "result": "~1000", "unit": "nM"}, {"measurement": "inhibition of RNAP backtracking", "setting": "[4]", "result": "inhibit RNAP backtracking"}]}
